For one assay, the system named is U266B1 cells. Briefly: Inhibition of IgE antibody secretion in U266B1 cells (IgE ELISA). It is filed as cell-based.
In a further assay the test system is MC/9 mouse mast cells. The experiment in a line: Degranulation inhibition (β-hexosaminidase secretion) in MC/9 mast cells induced with PMA/A23187. The class given is cell-based.
The subject of assay [1] is RBL-2H3 rat basophilic cells. Briefly: Degranulation inhibition (β-hexosaminidase secretion) in RBL-2H3 basophils induced with PMA/A23187. It is filed as cell-based.
Protocol: (§1) MC/9 mouse mast cells were purchased from the American Tissue Cell Culture (ATCC # CRL-8306), and RBL-2H3 rat basophilic cells were purchased from the Korean Cell Link Bank (KCLB #22256). MC/9 mast cells and RBL-2H3 basophils were diluted at concentrations of 2×10^6 cells/mL and 5×10^5 cells/mL, respectively, and 400 μl of each of the dilutions was dispensed into each well of 24-well plates. Each well was pretreated with 10 μg/mL or 20 μg/mL of each of the extracts and fractions (prepared in Preparation Examples 1 and 2 and shown in Tables 1 to 5 above) for 30 minutes, and then degranulation of the cells was induced with 200 nM PMA/10 mM A23187 for 1 hour. […] The absorbance at 405 nm was measured, and β-hexosaminidase secretion (%) was calculated using the following equation 2: β-hexosaminidase secretion (%)={absorbance of medium/(absorbance of cell lysate+absorbance of medium)}×100 Equation 2
(§2) Based on β-hexosaminidase secretion (%) obtained using equation 2 above, the degranulation inhibitory ability of each of the Justicia procumbens L. extracts was calculated using the following equation 3 (β-heXo: β-hexosaminidase): Degranulation inhibitory ability (%)={(β-hexo secretion % of test group−β-hexo secretion % of normal group)/(β-hexo secretion % of control group−β-hexo secretion % of normal group)}×100 Equation 3
The subject of assay [2] is Balb/c mouse rhinitis models. The experiment in a line: Inhibition of IgE secretion in Balb/c mouse rhinitis models (ovalbumin). Particulars: extract 200 mg/kg oral daily for 1 week, dexamethasone 3 mg/kg intraperitoneal. It is filed as in vivo. The protocol:
Specifically, 5-week-old Balb/c mice were purchased and acclimated for 1 week. On 0, 7 and 14 days of one week of acclimation, the mice were systematically sensitized by intraperitoneally injecting 0.1% ovalbumin (OVA: 1 mg/mL, Al(OH)3: 20 mg/ml) in an amount of 100 μl/mouse. […] As a positive control, 3 mg/kg of dexamethasone was intraperitoneally administered. After 1 hour, 0.4% ovalbumin solution was dropped into the nasal cavity. In the afternoon, 0.4% ovalbumin solution was dropped once more into the nasal cavity. […] The inhibition (%) of IgE secretion was calculated using the following equation 4: Inhibition (%) of secretion=100−{(concentration in test group−concentration in normal group)/(concentration in ovalbumin-induced group−concentration in normal group)}×100 Equation 4

In assay [3] the test system is Balb/c mouse asthma models. The experiment in a line: Inhibition of asthma in Balb/c mouse asthma models (ovalbumin): serum IgE, BALF IL-4, IL-5, inflammatory cells. It is filed as in vivo. The note with it: extracts 200 mg/kg oral daily for 10 days, dexamethasone 3 mg/kg intraperitoneal. The protocol:
5-week-old Balb/c mice were purchased and acclimated for 1 week. On 0 and 14 days of 1 week of acclimation, the mice were systematically sensitized by intraperitoneally administering 0.1% ovalbumin (OVA: 1 mg/mL, Al(OH)3: 20 mg/mL) in an amount of 100 μl/mouse. […] As a positive control, 3 mg/kg of dexamethasone was administered intraperitoneally. After one hour, 0.2% ovalbumin solution was sprayed and inhaled into the mice for 1 hour by use of a nebulizer (PARI Boy SX, Germany GmbH). 5 hours after final sensitization (30 days), the mice were biopsied, and whole blood was sampled from the mice and centrifuged at 12000 rpm for 10 minutes to separate serum. In addition, the lung tissue was isolated from each mouse and flushed with 1 mL of phosphate buffered saline through tracheostomy to collect bronchoalveolar lavage fluid (BALF). The collected bronchoalveolar lavage fluid was centrifuged at 3000 rpm for 10 minutes, and the supernatant was used to measure physiologically active substances (IL-4, and IL-5), and the pellets were used to measure the number of inflammatory cells.
The IgE concentration in the separated serum was measured using IgE enzyme-linked immonosorbent assay (ELISA, Komabiotech Inc.), and the physiologically active substances (interleukin-4 (IL-4) and interleukin-5 (IL-5)) in the isolated bronchoalveolar lavage fluid were measured using an enzyme-linked immonosorbent assay (ELISA, IL-4: Enzo # ADI-900-043, IL-5: R&D system # M5000) corresponding to each substance. The results of the measurement are shown in Table 14 below, and the ability of each extract to inhibit IgE secretion was calculated in the same manner as equation 4 shown in Example 3.
In addition, the bronchoalveolar lavage fluid pellets were re-dissolved in 0.5 mL of phosphate buffered saline, and 0.1 mL of the solution was added to each well of a 96-well plate and centrifuged at 800 rpm for 5 minutes to attach the cells to the bottom (3 wells per sample). Then, each sample was stained with Diff Quik staining solution (Sysmex), and photographed with a microscope at 2-6 random sites. About 200 cells per sample were counted to calculate the percentage (%) of inflammatory cells of each group. The total number of inflammatory cells was measured with a microscope using a hematocytometer, and the number of basophils was calculated using the percentage (%) of each inflammatory cells, and is shown in FIG. 1. Statistical processing was performed using an SPSS program, and a Levene test was performed for a test for equal variance, and significance was tested by one-way analysis (ANOVA).

Molecules are shown by their SMILES. Like-named read-outs stand apart in the source and are kept apart here.

This is an account of results in patent US10688143B2, “Composition containing extract or fraction of genus Justicia plant” (priority 2014, dated 2020).

Protocol for MC/9 mouse mast cells: as §1, §2
Protocol for U266B1 cells: The U266B1 cells used were purchased from the American Tissue Cell Culture (ATCC # TIB-196). Specifically, U266B1 cells were diluted in RPMI medium containing 15% fetal bovine serum (FBS) and antibiotics (100 U/mL of penicillin and 100 μg/mL of streptomycin) at a concentration of 2×10^5 cells/mL, and then the dilution was dispensed in a 24-well plate at a concentration of 400 μl/well and in a 96-well plate at a concentration of 100 μl/well, and incubated in a 5% CO2 incubator at 37° C. for 72 hours.
The U266B1 cells were treated with 5 mg/mL of each of the Justicia procumbens L. extracts and fractions (prepared in Preparation Examples 1 and 2 and shown in Tables 1 to 5). The medium in the 24-well plate was used to measure IgE antibody secretion, and the 96-well plate was used to measure cytotoxicity.
For measurement of IgE antibody secretion, the medium in the 24-well plate was collected and centrifuged at 125×g for 5 minutes to remove debris. 100 g of the medium was diluted 10-fold, and then the degree of IgE secretion was measured using IgE enzyme-linked immonosorbent assay (ELISA, Komabiotech Inc).

Broadly, the inhibition is the change of the read-out against control, counted positive when it falls. Turning to `C[C@@H]1C[C@H]2[C@@H]3CCC4=CC(=O)C=C[C@]4(C)[C@@]3(F)[C@@H](O)C[C@]2(C)[C@@]1(O)C(=O)CO` [Dexamethasone], the inhibition at 5 µg/mL in the assay on U266B1 cells (U266B1, 5 μg/mL, organic solvent extracts and fractions, Table 8, read-out: IgE secretion inhibition (%) (n = 3, Mean ± SE)) was determined as 4 ± 3.4%. In the assay on U266B1 cells (U266B1, concentration of test group 5 μg/mL, Table 6, read-out: IgE secretion inhibition (%) (n = 4, Mean ± SE)), the inhibition at 5 µg/mL turned out to be 8 ± 15%. Further, in the assay with MC/9 mouse mast cells (MC/9, 10 μg/mL, Table 11), the “Degranulation inhibition (%) (n = 3, Mean ± SE)” value stood at 35 ± 0.2%. In the assay on MC/9 mouse mast cells (MC/9, 20 μg/mL, Table 9), the “Inhibition (%) of degranulation (n = 3, Mean ± SE)” value worked out at 64 ± 0.2%. Besides, the inhibition at 10 µg/mL in assay [1] (RBL-2H3, 10 μg/mL, Table 11, read-out: Degranulation inhibition (%) (n = 3, Mean ± SE)) is 14 ± 3%. Moreover, the inhibition at 20 µg/mL in assay [1] (RBL-2H3, 20 μg/mL, Table 9, read-out: Inhibition (%) of degranulation (n = 3, Mean ± SE)) turned out to be 18 ± 1%. Besides, in assay [2], the “Serum IgE concentration (ng/mL, Mean ± SE)” value is reported as 32.2 ± 4.4 ng/mL. For the same molecule, the “Inhibition of IgE secretion (%, Mean ± SE)” value in assay [2] (equation 4) came out at 67.3 ± 6.3%. Further, in assay [3], the “Bronchoalveolar lavage fluid IL-4 (inhibition of IgE secretion, (%)), Mean ± SD” value was “(72.7 ± 3.8) %”; the “Bronchoalveolar lavage fluid IL-4 (pg/mL), Mean ± SD” value is recorded as 56.0 ± 2.1 # pg/mL; the “Bronchoalveolar lavage fluid IL-5 (inhibition of IgE secretion, (%)), Mean ± SD” value is given as “(98.7 ± 9.2) %”; the “Bronchoalveolar lavage fluid IL-5 (pg/mL), Mean ± SD” value is 4.8 ± 3.2 # pg/mL. Moreover, the “Serum IgE concentration (ng/mL), Mean ± SD” value in assay [3] is reported as 85.8 ± 4.9 # ng/mL. For the same molecule, the “Serum IgE (inhibition of IgE secretion, (%)), Mean ± SD” value in assay [3] (equation 4) is on record as “(25.0 ± 5.8) %”.
